Source: the NIST ThermoML archive (doi:10.1016/j.jct.2012.06.012)

Experiment: xn = mol fraction of the nth substance listed
Conditions: Liquid, Vibrating tube method

CCCCCCCCCC [decane] + CCO
Conditions	mass density [kg/m3]
362.64 K, 11000 kPa, x2 = 0.1011	686.5
362.64 K, 11000 kPa, x2 = 0.4963	692.75
362.64 K, 11000 kPa, x2 = 0.9014	719.95
362.64 K, 12000 kPa, x2 = 0.1011	687.56
362.64 K, 12000 kPa, x2 = 0.4963	693.89
362.64 K, 12000 kPa, x2 = 0.9014	721.13
362.64 K, 13000 kPa, x2 = 0.1011	688.62
362.64 K, 13000 kPa, x2 = 0.4963	694.99
362.64 K, 13000 kPa, x2 = 0.9014	722.28
362.64 K, 14000 kPa, x2 = 0.1011	689.68
362.64 K, 14000 kPa, x2 = 0.4963	696.14
362.64 K, 14000 kPa, x2 = 0.9014	723.43
362.64 K, 15000 kPa, x2 = 0.1011	690.66
362.64 K, 15000 kPa, x2 = 0.4963	697.17
362.64 K, 15000 kPa, x2 = 0.9014	724.55
362.64 K, 16000 kPa, x2 = 0.1011	691.66
362.64 K, 16000 kPa, x2 = 0.4963	698.23
362.64 K, 16000 kPa, x2 = 0.9014	725.65
362.64 K, 17000 kPa, x2 = 0.1011	692.65
362.64 K, 17000 kPa, x2 = 0.4963	699.27
362.64 K, 17000 kPa, x2 = 0.9014	726.75
362.64 K, 18000 kPa, x2 = 0.1011	693.62
362.64 K, 18000 kPa, x2 = 0.4963	700.3
362.64 K, 18000 kPa, x2 = 0.9014	727.82
362.64 K, 19000 kPa, x2 = 0.1011	694.56
362.64 K, 19000 kPa, x2 = 0.4963	701.3
362.64 K, 19000 kPa, x2 = 0.9014	728.87
362.64 K, 20000 kPa, x2 = 0.1011	695.5
362.64 K, 20000 kPa, x2 = 0.4963	702.3
362.64 K, 20000 kPa, x2 = 0.9014	729.9
362.65 K, 1000 kPa, x2 = 0.0937	675.13
362.65 K, 2000 kPa, x2 = 0.0937	676.3
362.65 K, 3000 kPa, x2 = 0.0937	677.46
362.65 K, 4000 kPa, x2 = 0.0937	678.6
362.65 K, 5000 kPa, x2 = 0.0937	679.76
362.65 K, 6000 kPa, x2 = 0.0937	680.91
362.65 K, 7000 kPa, x2 = 0.0937	682.04
362.65 K, 8000 kPa, x2 = 0.0937	683.16
362.65 K, 9000 kPa, x2 = 0.0937	684.25
362.65 K, 10000 kPa, x2 = 0.0937	685.35
362.65 K, 11000 kPa, x2 = 0.0937	686.41
362.65 K, 12000 kPa, x2 = 0.0937	687.48
362.65 K, 13000 kPa, x2 = 0.0937	688.51
362.65 K, 14000 kPa, x2 = 0.0937	689.55
362.65 K, 15000 kPa, x2 = 0.0937	690.57
362.65 K, 16000 kPa, x2 = 0.0937	691.56
362.65 K, 17000 kPa, x2 = 0.0937	692.56
362.65 K, 18000 kPa, x2 = 0.0937	693.53
362.65 K, 19000 kPa, x2 = 0.0937	694.47
362.65 K, 20000 kPa, x2 = 0.0937	695.39
362.71 K, 1000 kPa, x2 = 0.7526	692.67
362.71 K, 2000 kPa, x2 = 0.7526	693.99
362.71 K, 3000 kPa, x2 = 0.7526	695.3
362.71 K, 4000 kPa, x2 = 0.7526	696.58
362.71 K, 5000 kPa, x2 = 0.7526	697.86
362.71 K, 6000 kPa, x2 = 0.7526	699.12
362.71 K, 7000 kPa, x2 = 0.7526	700.37
362.71 K, 8000 kPa, x2 = 0.7526	701.6
362.71 K, 9000 kPa, x2 = 0.7526	702.81
362.71 K, 10000 kPa, x2 = 0.7526	704.01
362.71 K, 11000 kPa, x2 = 0.7526	705.19
362.71 K, 12000 kPa, x2 = 0.7526	706.37
362.71 K, 13000 kPa, x2 = 0.7526	707.51
362.71 K, 14000 kPa, x2 = 0.7526	708.68
362.71 K, 15000 kPa, x2 = 0.7526	709.76
362.71 K, 16000 kPa, x2 = 0.7526	710.84
362.71 K, 17000 kPa, x2 = 0.7526	711.92
362.71 K, 18000 kPa, x2 = 0.7526	712.98
362.71 K, 19000 kPa, x2 = 0.7526	714.02
362.71 K, 20000 kPa, x2 = 0.7526	715.03
362.8 K, 1000 kPa, x2 = 0.2507	676.12
362.8 K, 2000 kPa, x2 = 0.2507	677.34
362.8 K, 3000 kPa, x2 = 0.2507	678.55
362.8 K, 4000 kPa, x2 = 0.2507	679.73
362.8 K, 5000 kPa, x2 = 0.2507	680.92
362.8 K, 6000 kPa, x2 = 0.2507	682.09
362.8 K, 7000 kPa, x2 = 0.2507	683.25
362.8 K, 8000 kPa, x2 = 0.2507	684.4
362.8 K, 9000 kPa, x2 = 0.2507	685.54
362.8 K, 10000 kPa, x2 = 0.2507	686.66
362.8 K, 11000 kPa, x2 = 0.2507	687.77
362.8 K, 12000 kPa, x2 = 0.2507	688.85
362.8 K, 13000 kPa, x2 = 0.2507	689.91
362.8 K, 14000 kPa, x2 = 0.2507	691.02
362.8 K, 15000 kPa, x2 = 0.2507	692.02
362.8 K, 16000 kPa, x2 = 0.2507	693.05
362.8 K, 17000 kPa, x2 = 0.2507	694.06
362.8 K, 18000 kPa, x2 = 0.2507	695.04
362.8 K, 19000 kPa, x2 = 0.2507	696.01
362.8 K, 20000 kPa, x2 = 0.2507	696.96
